Tests used:
C57BL/6NTac mice [1] = experiment: Imiquimod-induced skin inflammation, ears and back skin: RORγ-dependent gene expression and ex vivo stimulated whole blood IL-17A; assay type: in vivo, mouse
Text: (§1) Imiquimod is an immune modifying agent that potently activates specific Toll-like receptors (e.g., TLR7) and induces irritation/inflammation of the skin that requires the IL23R/RORγ/IL17 axis of the immune system (van der Fits et al, (2009) J Immunol; 182:5836-5845; Gray et al, (2013) Nature Immunol; June; 14(6):584-92). The imiquimod-induced skin inflammation model can be used to assess the ability of an RORγ inhibitor to reduce Th17-driven inflammation in mice. For the ear-only skin inflammation model in which ear thickness was measured with digital engineer's calipers (Mitutoyo PK-0505), female wild type C57BL/6NTac mice obtained from Taconic (Hudson, N.Y.) at 8 to 12 wk of age received a daily topical dose of 10 mg of commercially available imiquimod cream (5%) (Aldara; Medicis) distributed over both ears at approximately 11:00 h for up to 4 consecutive days. Alternatively, 72 mg of Aldara was distributed over both ears and the shaved/depiliated back skin of mice at approximately 11:00 h for 3 consecutive days to examine RORγ-dependent gene expression (RNA isolated from both ears using Qiazol followed by clean-up on with the RNeasy protocol (Qiagen, Germantown, Md.); Taqman probe/primer sets for B2M (Mm00437762_ml), IL-17A (Mm00439619_ml), IL-17F (Mm00521423_ml), or IL-22 (Mm00444241_ml) (Thermo Fisher Scientific, Inc., Waltham, Mass.) and ex vivo stimulated (anti-CD3 (2 μg/ml, clone eBio500A2, eBioscience, San Diego, Calif.), anti-CD28 (1 μg/ml, clone 37.51, BD Bioscience, San Jose, Calif.), recombinant mouse IL-13 (20 ng/ml, R&D Systems, Minneapolis, Minn.), and recombinant mouse IL-23 (20 ng/ml, R&D Systems, Minneapolis, Minn.) IL-17A protein expression from whole blood (Meso Scale Discovery, Rockville, Md.). For treatment of the skin inflammation in these models, each compound or vehicle (methylcellulose in water, 1% w/v, Sigma Aldrich, St. Louis, Mo.) was administered via oral gavage at approximately 08:00 h and 16:00 h daily at various doses selected from 1, 3, 10, and 30 mg/kg.

C57BL/6NTac mice [2] = experiment: Imiquimod-induced skin inflammation, ear-only model (ear thickness); assay type: in vivo, mouse; settings: for imiquimod-induced ear thickening: oral gavage twice daily, Studies 1-4
Text: as §1

## Cc1c(CN2CCN(C(=O)C3CCCC3)[C@@H](C)C2)cc(Cl)cc1NC(=O)CCS(C)(=O)=O [Example 43, (S)—N-(5-chloro-3-((4-(cyclopentanecarbonyl)-3-methylpiperazin-1-yl)methyl)-2-methylphenyl)-3-(methylsulfonyl)propanamide]
C57BL/6NTac mice [1]; study A, 10 mg/kg oral
  IL17A protein expressed following ex vivo stimulation of whole blood: significantly reduced
  ear mRNA levels of IL17A, IL17F, or IL22: no significant reduction
C57BL/6NTac mice [1]; study B, 10 mg/kg oral
  IL17F mRNA levels in the ear skin: significantly reduced
  IL22 mRNA levels in the ear skin: significantly reduced
C57BL/6NTac mice [1]; study C
  IL17A mRNA levels in the ear skin: reached statistical significance
C57BL/6NTac mice [2]; 10 mg/kg
  imiquimod-induced ear thickening: statistically significant reduction
C57BL/6NTac mice [2]; 30 mg/kg
  imiquimod-induced ear thickening: statistically significant reduction
C57BL/6NTac mice [2]; FIG. 1, dose not stated
  imiquimod-induced ear thickening, versus vehicle (FIG. 1): statistically significant reduction

From patent US9902735B2, “Heteroaryl substituted compounds as RORγ inhibitors” (GlaxoSmithKline Intellectual Property Developement Limited, priority 2014, dated 2018)
